The values that follow come from patent US20030196279A1, “Single-bath biopreparation and dyeing of textiles” (Novozymes North America, Inc., priority 1999, published 2003).

One assay relates to pectate lyase. The experiment in a line: Compatibility of pectate lyase with dyes, vibration viscometry assay on polygalacturonic acid. Format: biochemical. To be noted: 0.5 ml of 10 g/l dye solution added; pH 8.5, 40° C., 20 minutes; relative to none-dye control. As to the method: An analytical assay is used in compatibility tests. Prior to this assay, 5 mM phosphate buffer pH 8.5 is made up using KH2PO4 and NaOH (both from Fisher). The other solutions are constituted as follows:
i) The substrate is polygalacturonic acid in sodium salt form (from SIGMA). The substrate solution is made up to 11.436 g/l by dissolving polygalacturonic acid sodium salt in the phosphate buffer.
ii) Dye solutions are made up to 10 g/l by dissolving a commercial dye in the phosphate buffer.
iii) An internal standard pectate lyase (2600 APSU/g) is used. The enzyme solution is made up to 500 APSU/ml by dissolving the pectate lyase in the phosphate buffer.
During the assay, 3.5 ml substrate solution was pipetted into each tube. 0.5 ml of a dye solution or buffer was added and mixed well. The tube was then preheated in 40° C. water bath for 5 minutes. A total of 0.5 ml solution, including enzyme, and buffer was added using Hamilton Micro Lab 900. In dye compatibility, the 0.5 ml solution was made up with 40 μl enzyme solution and 460 μl buffer. For standard curve, 0-90 μl enzyme solution was used. Once enzyme was added, the solution was mixed immediately and the tube incubated at 40° C. for 20 minutes. The viscosity was then measured after putting the tube on a vibration viscometer (Sofraser Viscometer-mivi 3000, from France) for 10 seconds. At all conditions, experiments were performed in duplicate.
A standard linear curve was obtained within 0-5 APSU/ml pectate lyase concentration range (0-45 μl enzyme solution added). The correlation is given in the equation below: […]
Since the Y was obtained from experimental measurements, X was then calculated using the above equation. The enzyme activity with the addition of dye was compared to the activity of none-dye control. The relative activity is illustrated in Table 13. […] Since the chromophore structure of reactive dye shares similar chemical structure of direct dye and other dye classes, similar compatibility results may be expected for other dye classes. […] Since commercial dyes are not pure and often contains salt, the positive impact may be due to the salt in dye formula.

For assay [1], the system named is pectate lyase activity on woven cotton fabric. To be noted: Example 5; 2000 APSU/kg pectate lyase, pH 9.2, 60° C., 30 minutes, woven fabric 480U.
Description: A buffer containing 2 mM borate at pH 9.2 and 1 g/l nonionic surfactant Tergitol 15-S-12 was prepared. The solution was transferred to Labomat beakers (Werner-Mathis USA, Inc., NC). […] Swatches of a woven fabric (type 480U from Testfabrics, Inc., PA) were then added to the beakers so that the liquor-to-fabric ratio was 10 ml/g. After the temperature was raised to 60° C., 2000 APSU/kg fiber of pectate lyase were added and the fabric was incubated at 60° C. for 30 minutes. The swatches were then removed and rinsed twice in hot and cold water.
The amount of residual pectic substances remaining on the fabric was determined by measuring the color strength of the fabric dyed with Ruthenium red, a dye with an affinity for pectic substances. For the Ruthenium red assay, a fresh solution was prepared containing 0.2 g/l Ruthenium red, 1.0 g/l ammonium chloride, 2.5 ml/l 28% ammonium hydroxide solution, 1.0 g/l Silwet L-77 (Wetter, Polyalkyleneoxide modified heptamethyltrisiloxane), and 1.1 g/l Tergitol 15-S-12. The solution was used at a ratio of 100 ml solution/gram of fabric. Fabric swatches were dyed at room temperature in Labomat beakers for 15 minutes and then rinsed with cold water. After drying, the color of swatches was assessed by measuring the reflectance of the Ruthenium red-dyed fabric on Macbeth color eye at 540 nm, and the dye on the fabric was calculated as K/S value.
A short description of assay [2]: Wetting test, water drop test, AATCC Test Method 79-1992. To be noted: Example 10; added to pectinase biopreparation and dyeing solution. On the procedure:
The wetting test was performed using water according to AATCC Test Method 79-1992. Five measurements were taken from each of three areas along the fabric in this water drop test. Color measurements were made using reflectance Macbeth Color Eye System with Optiview 1.7 software, using 10° standard observer and illuminant D65, which represents average daylight over range of 380-830 nm. Ten measurements at different positions of fabric tube were carried out.

`C=C(Br)C(=O)Nc1ccc(N=Nc2c(NC)ccc3cc(S(=O)(=O)[O-])cc(O)c23)c(S(=O)(=O)[O-])c1.[Na+].[Na+]` [Lanasol Red 5B]: the “% Activity (relative pectate lyase activity)” value in the assay on pectate lyase is 117.6%. Same read-out and setting: under `Nc1c(N=Nc2ccc(S(=O)(=O)CCOS(=O)(=O)[O-])cc2)c(S(=O)(=O)[O-])cc2cc(S(=O)(=O)[O-])c(N=Nc3ccc(S(=O)(=O)CCOS(=O)(=O)[O-])cc3)c(O)c12.[Na+].[Na+].[Na+].[Na+]` [Remazol Black B] stands 114.8%. On the same count and under the same terms, under `Nc1c(S(=O)(=O)[O-])cc(Nc2cccc(S(=O)(=O)CCOS(=O)(=O)[O-])c2)c2c1C(=O)c1ccccc1C2=O.[Na+].[Na+]` [Remazol Br. Blue R Spec.] stands 200.9%. On the same count and under the same terms, under `CC(=O)Nc1ccc2cc(S(=O)(=O)O)c(N=Nc3ccc(S(=O)(=O)CCOS(=O)(=O)O)cc3)c(O)c2c1.[Na]` [Remazol Br. Orange 3R] stands 110.1%. `O=S(=O)([O-])[O-].[Na+].[Na+]` [sodium sulfate]: the “sodium sulfate concentration at which a minimum amount of pectic residue was left on the fabric” value in assay [1] is reported as “about 20 g/l”.

Consider `O=P(O)(O)OP(=O)(O)OP(=O)(O)O` [sodium tripoly phosphate (STPP), sodium tripoly phosphate], for which the “wettability (wetting time in the drop test, FIG. 2)” value in assay [2] is “better wettability”. Same read-out and setting: under cellulase stands “better wettability”.
